Source: US12297192B2, “Crystal form of pyrimidine sulfonamide compound and preparation method therefor” (WUXI BIOCITY BIOPHARMACEUTICS CO., LTD., priority 2019, dated 2025)
“And” between values parts separate entries of the source, which are not always exact repeats. Identical values can stand only once.

Columns and labels:
[1] = Hygroscopicity study of Crystal Form A; assay type: physicochemical; conditions: 25° C., 24 hours
Source text: Categorization in the hygroscopicity evaluation is as follows:
• 1) Two dry stoppered glass weighing bottles (50 mm external diameter, 30 mm high) were taken and kept in a desiccator with a saturated solution of ammonium chloride in the lower part. The weighing bottles were left open.

[2] = target: T1, human ETB receptors (Homo sapiens, UniProt P24530); experiment: In vitro antagonistic effect on human ETB receptors (Ca2+ fluorescence, transfected CHO cells); assay type: cell-based; conditions: 0.3 nM endothelin-1
T1 construct: host or cells: CHO cells
T1 sequence (P24530 27-442): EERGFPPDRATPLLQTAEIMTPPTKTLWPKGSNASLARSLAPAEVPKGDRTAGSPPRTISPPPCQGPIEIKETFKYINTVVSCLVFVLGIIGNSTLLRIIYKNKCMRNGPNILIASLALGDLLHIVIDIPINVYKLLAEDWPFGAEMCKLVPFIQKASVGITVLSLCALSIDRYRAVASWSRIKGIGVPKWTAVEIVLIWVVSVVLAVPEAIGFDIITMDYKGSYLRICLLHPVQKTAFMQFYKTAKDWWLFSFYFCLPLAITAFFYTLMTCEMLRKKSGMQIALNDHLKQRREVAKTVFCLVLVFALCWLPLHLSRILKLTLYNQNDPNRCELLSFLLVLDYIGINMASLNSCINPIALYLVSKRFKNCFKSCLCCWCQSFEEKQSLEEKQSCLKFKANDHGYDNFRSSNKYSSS
Description: The antagonist activities of the compounds on human ETB receptors expressed in transfected CHO cells were assessed by measuring the effects of the compounds on changes in cytoplasmic Ca^2+ ion signaling induced by an agonist of human ETB receptor using a fluorescence assay. The functional activity of the ETB receptor antagonistic effect was tested at Eurofins-Cerep SA according to current standard operating procedures.
• 1. Cells were suspended in DMEM buffer (Invitrogen) and then distributed at a density of 3×10^4 cells/well in 384 plates (100 μL/well). • 2. HBSS buffer (Invitrogen) supplemented with 20 mM Hepes (Invitrogen) (pH 7.4) was mixed with the fluorescent probe (Fluo4 Direct, Invitrogen) and added to each well. Equilibrated with the cells for 60 minutes at 37° C. and then for 15 minutes at 22° C. • 3. The assay plate was placed in a microplate reader (CellLux, PerkinElmer). DMSO solution of the test compound and the positive control or HBSS buffer in appropriate concentration was added. […] Then the change in fluorescence intensity was measured. The fluorescence intensity is in proportion to the Ca^2+ ion concentration of the free cytosol. • 4. […] The standard positive control was BQ-788 and several concentrations were tested in each experiment and the data was analyzed using Prism to produce a concentration-response curve to calculate the IC50 values of the compounds. […]

[3] = Pharmacokinetic evaluation in Beagle dogs; assay type: in vivo; conditions: for Bioavailability F: 3 mg/kg
Description: Male Beagle dogs were used as the test animals in this study. The LC/MS/MS method was applied to quantify the plasma drug concentrations in Beagle dogs at different time points after administration of the test compound by intravenous injection or oral gavage to evaluate the pharmacokinetic profile of the test compound in Beagle dogs.
Beagle dogs (Male, 6-15 kg, above 6 months, Beijing Marshall Biotechnology Co.)
A clear solution of the test compound was administered to the Beagle dogs by intravenous injection (overnight fasting) or oral gavage (overnight fasting). At 0 h (before administration by intravenous injection) and at 0.0833, 0.25, 0.5, 1, 2, 4, 6, 8 and 24 h after administration by intravenous injection, about 500 μL of blood was collected from peripheral blood vessels into anticoagulation tubes supplemented with EDTA-K2 (Jiangsu Kangjian Medical Supplies Co., Ltd.). At 0 hours (before administration by oral gavage) and 0.25, 0.5, 1, 2, 4, 6, 8 and 24 hours after administration by oral gavage, about 500 μL of blood was collected from peripheral blood vessels into anticoagulation tubes supplemented with EDTA-K2. The mixture in the anticoagulation tube was vortexed thoroughly at 4° C. and the plasma was then centrifuged at 13,000 rpm for 10 minutes to obtain the plasma. Blood concentrations were determined by LC/MS/MS and the relevant pharmacokinetic parameters were calculated using WinNonlin™ Version 6.3 (Pharsight, Mountain View, CA) pharmacokinetics software with a non-compartmental model linear-log trapezoidal method.

[4] = Pharmacokinetic evaluation in rats; assay type: in vivo, SD rats
Description: The animals used in this study were SD male rats. The LC/MS/MS method was applied to quantify the plasma drug concentrations in rats at different time points after administration of the test compound intravenously or orally by gavage in order to evaluate the pharmacokinetic characteristics of the test compound in rats.
Sprague Dawley (SD) rats (male, 200-300 g, 7-10 weeks old, Beijing Vital River or Shanghai SLAC).
A clear solution of the test compound was administered to SD rats by tail vein injection (overnight fasting) or oral gavage (overnight fasting). At 0 hour (before administration through tail vein injection) and 0.0833, 0.25, 0.5, 1, 2, 4, 6, 8 and 24 hours after administration through tail vein injection, 200 μL of blood was collected by jugular venipuncture into anticoagulation tubes supplemented with EDTA-K2 (Jiangsu Kangjian Medical Supplies Co., Ltd.). The mixture in the anticoagulation tube was vortexed thoroughly at 4° C. and then centrifuged at 13,000 rpm for 10 minutes to obtain the plasma. At 0 hours (before administration by oral gavage) and 0.5, 1, 2, 4, 6, 8 and 24 hours after administration by oral gavage, 200 μL of blood was collected by jugular venipuncture into anticoagulation tubes supplemented with EDTA-K2 (Jiangsu Kangjian Medical Supplies Co., Ltd.). The mixture in the anticoagulation tube was vortexed thoroughly and the plasma was then centrifuged at 13,000 rpm for 10 minutes to obtain the plasma. Blood concentrations were determined by LC/MS/MS and the relevant pharmacokinetic parameters were calculated using WinNonlin™ Version 6.3 (Pharsight, Mountain View, CA) pharmacokinetics software with a non-compartmental model linear-log trapezoidal method.

| Structure (SMILES) | Hygroscopicity categorization [1] | Moisture-absorption weight gain, Mean (%) ([1]; mean of two samples, desiccator with saturated ammonium chloride solution) | Weight gain percentage (%) ([1]; single sample, desiccator with saturated ammonium chloride solution) | IC50 [2] | Area under the drug concentration-time curve ([3]; intravenous injection 1 mg/kg) | Area under the drug concentration-time curve ([3]; oral 3 mg/kg) | Peak concentration ([3]; oral 3 mg/kg) | Peak time ([3]; oral 3 mg/kg) | Bioavailability F ([3]; oral 3 mg/kg) | Bioavailability F ([3]; oral 3 mg/kg, listed as compound of formula (I)) | Area under the drug concentration-time curve ([4]; intravenous injection 2 mg/kg) | Plasma clearance ([4]; intravenous injection 2 mg/kg, 2 mg/kg) | Area under the drug concentration-time curve ([4]; oral 10 mg/kg) | Peak concentration ([4]; oral 10 mg/kg) | Peak time ([4]; oral 10 mg/kg) | Bioavailability ([4]; oral 10 mg/kg, 10 mg/kg) |
| --- | --- | --- | --- | --- | --- | --- | --- | --- | --- | --- | --- | --- | --- | --- | --- | --- |
| COCCNS(=O)(=O)Nc1ncnc(OCCOc2ncc(Br)cn2)c1-c1ccc2c(c1)OCO2 | non- or almost non-hygroscopic | 0.075% | 0.11% and 0.04% | 32 µM | – | – | – | – | – | – | – | – | – | – | – | – |
| COCCNS(=O)(=O)Nc1ncnc(OCCOc2ncc(Br)cn2)c1-c1ccc2c(c1)OCO2 [Compound of formula (I)] | – | – | – | – | 7.56 µM·h | 33.40 µM·h | 12.75 µM | 0.38 h | 147% | > 50% | 16.09 µM·h | 3.71 mL/min/kg | 60.22 µM·h | 31.99 µM | 0.25 h | 74.9% |
